Test results as given in ChEMBL document CHEMBL1201862, “PubChem BioAssay data set” (2004).
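Interpolation was linear, between the two tested concentrations surrounding the appropriate level; five concentrations were tested over 48 hours in 96-well plates. At the GI50, growth is halved.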 Calls of active or inactive are those of the source. No stated cut-off is given here; in the data, active = GI50 up to about 1.1 µM and inactive = higher.

How the values were obtained:
Experiment in all cases: growth of human tumour cells (NCI), 48 h
CAKI-1 = tested on: CAKI-1
KM-20L2 = tested on: KM-20L2
Malme-3M = tested on: Malme-3M
SF-268 = tested on: SF-268
CCRF-CEM = tested on: CCRF-CEM
OVCAR-5 = tested on: OVCAR-5
LOX IMVI = tested on: LOX IMVI
OVCAR-3 = tested on: OVCAR-3
KM12 = tested on: KM12
SK-MEL-28 = tested on: SK-MEL-28
EKVX = tested on: EKVX
UACC-62 = tested on: UACC-62
SNB-19 = tested on: SNB-19
HOP-62 = tested on: HOP-62
HCT-116 = tested on: HCT-116
RXF 393 = tested on: RXF 393
MDA-MB-435 = tested on: MDA-MB-435
SR = tested on: SR
BT-549 = tested on: BT-549
MDA-N = tested on: MDA-N

Measured: GI50

COC(=O)C1(C(C)C)CCc2c(OC)ccc(OC)c2C1=O (stereo not given)
inactive: CAKI-1 > 100 µM | KM-20L2 > 100 µM | Malme-3M > 100 µM | SF-268 > 100 µM | CCRF-CEM > 100 µM | OVCAR-5 > 100 µM | LOX IMVI > 100 µM | OVCAR-3 > 100 µM | KM12 > 100 µM | SK-MEL-28 > 100 µM | EKVX 75.2 µM | UACC-62 79.8 µM | SNB-19 > 100 µM | HOP-62 > 100 µM | HCT-116 > 100 µM

O=C(O)c1oc2ccc([N+](=O)[O-])c3c2c1CCC3
inactive: CAKI-1 > 100 µM | KM-20L2 > 100 µM | Malme-3M 54.1 µM | SF-268 74.3 µM | OVCAR-5 > 100 µM | RXF 393 > 100 µM | LOX IMVI > 100 µM | OVCAR-3 > 100 µM | KM12 > 100 µM | SK-MEL-28 > 100 µM | EKVX > 100 µM | SNB-19 > 100 µM | HOP-62 > 100 µM | HCT-116 > 100 µM

O=C(CC(=O)N1N=C(N2c3ccccc3Sc3ccccc32)CC1c1ccccc1)Nc1ccc(Cl)cc1 (stereo not given)
inactive: CAKI-1 > 100 µM | KM-20L2 > 100 µM | Malme-3M > 100 µM | SF-268 > 100 µM | CCRF-CEM > 10 µM | OVCAR-5 > 100 µM | RXF 393 > 100 µM | LOX IMVI > 100 µM | OVCAR-3 > 100 µM | KM12 > 100 µM | SK-MEL-28 > 100 µM | EKVX > 100 µM | UACC-62 > 100 µM | SNB-19 > 100 µM | HOP-62 > 100 µM | HCT-116 > 100 µM

O=C1c2ccccc2C2(Br)C(=O)c3ccccc3C12 (stereo not given)
inactive: CAKI-1 > 100 µM | KM-20L2 > 100 µM | Malme-3M > 100 µM | SF-268 > 100 µM | CCRF-CEM 42.4 µM | OVCAR-5 > 100 µM | RXF 393 > 100 µM | LOX IMVI 11.1 µM | OVCAR-3 > 100 µM | KM12 > 100 µM | SK-MEL-28 > 100 µM | EKVX > 100 µM | UACC-62 > 100 µM | HOP-62 > 100 µM

O=C1OC(c2ccccc2)=N/C1=C/NC(Cc1ccc(O)cc1)C(=O)O (stereo not given)
inactive: CAKI-1 > 100 µM | KM-20L2 > 100 µM | Malme-3M > 100 µM | SF-268 > 100 µM | CCRF-CEM > 100 µM | OVCAR-5 > 100 µM | RXF 393 > 100 µM | LOX IMVI > 100 µM | OVCAR-3 > 100 µM | KM12 > 100 µM | SK-MEL-28 > 100 µM | EKVX > 100 µM | SNB-19 > 100 µM | HOP-62 > 100 µM | HCT-116 > 100 µM

COc1cc(C(=O)C/C(CCC(=O)Nc2ccccc2[N+](=O)[O-])=N\NC(=O)CC#N)ccc1O
inactive: CAKI-1 > 100 µM | KM-20L2 > 100 µM | Malme-3M > 100 µM | SF-268 > 100 µM | CCRF-CEM > 100 µM | OVCAR-5 > 100 µM | RXF 393 > 100 µM | LOX IMVI > 100 µM | OVCAR-3 > 100 µM | KM12 > 100 µM | SK-MEL-28 > 100 µM | EKVX > 100 µM | UACC-62 > 100 µM | SNB-19 > 100 µM | HOP-62 > 100 µM

COc1ccc2[nH]c3c(C)c4ccnc(NCCCN(C)CCCNc5ccc([N+](=O)[O-])c6[nH]c7ccccc7c(=O)c56)c4c(C)c3c2c1
active: CAKI-1 0.466 µM | MDA-MB-435 0.471 µM | Malme-3M 0.285 µM | SF-268 0.52 µM | CCRF-CEM 0.212 µM | OVCAR-5 0.607 µM | RXF 393 0.0396 µM | LOX IMVI 0.14 µM | OVCAR-3 0.607 µM | KM12 0.301 µM | SK-MEL-28 0.887 µM | EKVX 0.271 µM | SR 0.0114 µM | UACC-62 0.82 µM | BT-549 0.678 µM | SNB-19 0.284 µM | HOP-62 0.239 µM | HCT-116 0.0145 µM | MDA-N 0.372 µM

Cc1cn(C2CC(O)C(Cn3nncc3Cn3nc(Br)c(=O)[nH]c3=O)O2)c(=O)[nH]c1=O (stereo not given)
inactive: CAKI-1 > 100 µM | MDA-MB-435 > 100 µM | Malme-3M > 100 µM | SF-268 > 100 µM | CCRF-CEM > 100 µM | OVCAR-5 > 100 µM | RXF 393 > 100 µM | LOX IMVI > 100 µM | OVCAR-3 > 100 µM | KM12 > 100 µM | SK-MEL-28 > 100 µM | EKVX > 100 µM | SR > 100 µM | UACC-62 > 100 µM | BT-549 > 100 µM | SNB-19 > 100 µM | HOP-62 > 100 µM | HCT-116 > 100 µM | MDA-N > 100 µM

COc1cc(OC)c2c(=O)cc(-c3ccccc3F)[nH]c2c1
inactive: CAKI-1 61.5 µM | MDA-MB-435 8.38 µM | Malme-3M > 100 µM | SF-268 39.2 µM | CCRF-CEM 88.9 µM | OVCAR-5 73.3 µM | RXF 393 29.8 µM | LOX IMVI 61.1 µM | OVCAR-3 57 µM | KM12 32.9 µM | SK-MEL-28 > 100 µM | EKVX 86.5 µM | SR 60.8 µM | UACC-62 52.8 µM | BT-549 > 100 µM | SNB-19 26 µM | HOP-62 82.6 µM | HCT-116 38.3 µM | MDA-N 25.8 µM

COc1ccc([C@H]2CC(=O)C[C@H](c3ccc(OC)cc3)C23C(=O)c2ccccc2C3=O)cc1
inactive: CAKI-1 3.06 µM | MDA-MB-435 1.95 µM | Malme-3M 5 µM | SF-268 6.76 µM | CCRF-CEM 3.68 µM | OVCAR-5 12.6 µM | RXF 393 2.92 µM | LOX IMVI 4.16 µM | OVCAR-3 2.97 µM | KM12 4.13 µM | SK-MEL-28 9.64 µM | EKVX 4.59 µM | SR 3.28 µM | UACC-62 4 µM | BT-549 5.65 µM | SNB-19 5.35 µM | HOP-62 6.25 µM | HCT-116 4.46 µM | MDA-N 2.07 µM

O=C1OC2CCCC[C@@H]2C2C[C@]34CCCCC3[C@@H](C(=O)O4)C12 (stereo not given in full)
inactive: KM-20L2 > 100 µM | Malme-3M > 100 µM | SF-268 > 100 µM | CCRF-CEM > 100 µM | OVCAR-5 > 100 µM | RXF 393 > 100 µM | LOX IMVI > 100 µM | OVCAR-3 > 100 µM | KM12 > 100 µM | SK-MEL-28 > 100 µM | EKVX > 100 µM | UACC-62 > 100 µM | SNB-19 > 100 µM | HOP-62 > 100 µM | HCT-116 > 100 µM

COc1cc(C2c3cc4c(cc3OC(C)(N3CCCC3)C2C)OCO4)cc(OC)c1OC (stereo not given)
active: CAKI-1 1.09 µM | MDA-MB-435 0.128 µM | Malme-3M 0.343 µM | SF-268 0.714 µM | CCRF-CEM 0.267 µM | OVCAR-5 0.49 µM | RXF 393 0.256 µM | LOX IMVI 0.452 µM | OVCAR-3 0.203 µM | KM12 0.286 µM | SK-MEL-28 0.798 µM | EKVX 0.43 µM | SR 0.0931 µM | UACC-62 0.373 µM | BT-549 0.232 µM | SNB-19 0.391 µM | HOP-62 0.301 µM | HCT-116 0.433 µM | MDA-N 0.154 µM

Cc1cc(=O)oc2cc3oc(N(C)c4ccccc4)nc(=O)c3cc12
inactive: CAKI-1 > 100 µM | MDA-MB-435 > 100 µM | Malme-3M > 100 µM | SF-268 40.9 µM | CCRF-CEM > 100 µM | OVCAR-5 > 100 µM | RXF 393 > 100 µM | LOX IMVI > 100 µM | OVCAR-3 > 100 µM | KM12 > 100 µM | SK-MEL-28 > 100 µM | EKVX > 100 µM | SR 82.2 µM | UACC-62 > 100 µM | BT-549 50.2 µM | SNB-19 67.9 µM | HOP-62 > 100 µM | HCT-116 > 100 µM | MDA-N > 100 µM

COc1cccc(C2c3cc4c(cc3OC(NNC(N)=O)C2C)OCO4)c1OC (stereo not given)
inactive: CAKI-1 24.5 µM | MDA-MB-435 19.9 µM | Malme-3M 25.9 µM | SF-268 27.7 µM | CCRF-CEM 24.7 µM | OVCAR-5 34.1 µM | RXF 393 14.1 µM | LOX IMVI 19.1 µM | OVCAR-3 17.5 µM | KM12 23.2 µM | SK-MEL-28 21.4 µM | EKVX 26.7 µM | UACC-62 22.3 µM | BT-549 20.1 µM | SNB-19 29.1 µM | HOP-62 22 µM | HCT-116 14.1 µM | MDA-N 18 µM
active: SR 0.431 µM

COc1ccc(C(=O)/C=C/c2ccc(Oc3cc(C(=O)/C=C/c4ccc(O)cc4)c(O)cc3OC)cc2)c(O)c1 [RHUSCHALCONE I]
inactive: CAKI-1 4.1 µM | MDA-MB-435 3.55 µM | Malme-3M 17.2 µM | SF-268 5.19 µM | CCRF-CEM 2.27 µM | OVCAR-5 4.19 µM | RXF 393 2.56 µM | LOX IMVI 2.27 µM | OVCAR-3 4.3 µM | KM12 2.65 µM | SK-MEL-28 2.74 µM | EKVX 4.01 µM | SR 1.92 µM | UACC-62 3.27 µM | BT-549 10.4 µM | SNB-19 8.3 µM | HOP-62 4.83 µM | HCT-116 1.87 µM | MDA-N 3.48 µM

COc1ccc(C2c3cc4c(cc3OC3(OC)COC(=O)C23)OCO4)c(OC)c1 (stereo not given)
inactive: CAKI-1 7.43 µM | MDA-MB-435 1.71 µM | Malme-3M 8.63 µM | SF-268 14.6 µM | CCRF-CEM 4.32 µM | OVCAR-5 54.7 µM | RXF 393 6.59 µM | LOX IMVI 6.95 µM | OVCAR-3 4.72 µM | KM12 3.43 µM | SK-MEL-28 18.4 µM | EKVX 16.2 µM | SR 4.49 µM | UACC-62 5.73 µM | BT-549 6.56 µM | SNB-19 14.2 µM | HOP-62 8.39 µM | HCT-116 5.33 µM | MDA-N 1.77 µM
